# Assay results as given in article PMC9728092 (RSC Advances, 2022).
# Molecular target: AChE (Homo sapiens, UniProt P22303)
# Experiment: AChE inhibitory assay in vitro
# Format: biochemical
# AChE, sequence (P22303 32-614): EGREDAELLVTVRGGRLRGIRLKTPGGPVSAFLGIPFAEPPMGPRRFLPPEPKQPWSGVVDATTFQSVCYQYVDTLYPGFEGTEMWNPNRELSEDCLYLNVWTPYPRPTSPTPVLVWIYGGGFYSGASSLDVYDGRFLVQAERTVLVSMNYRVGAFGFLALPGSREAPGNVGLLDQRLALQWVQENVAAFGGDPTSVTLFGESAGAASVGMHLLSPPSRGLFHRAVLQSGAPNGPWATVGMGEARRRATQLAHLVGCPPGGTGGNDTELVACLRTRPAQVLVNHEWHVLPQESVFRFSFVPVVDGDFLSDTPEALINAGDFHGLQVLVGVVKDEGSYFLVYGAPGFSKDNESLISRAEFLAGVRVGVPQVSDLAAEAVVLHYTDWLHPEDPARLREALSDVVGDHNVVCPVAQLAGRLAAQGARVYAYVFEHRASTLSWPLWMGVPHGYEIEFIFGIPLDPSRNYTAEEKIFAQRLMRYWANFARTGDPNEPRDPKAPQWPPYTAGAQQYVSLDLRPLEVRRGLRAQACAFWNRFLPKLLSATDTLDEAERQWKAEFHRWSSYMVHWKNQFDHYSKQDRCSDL
row,Compound,IC50 [µM]
1,"O=c1c(O)c(-c2ccc(O)c(O)c2)oc2cc(O)cc(O)c12 [Compound 9, quercetin]",3.96 ± 0.27
2,"O=c1c(O)c(-c2ccc(O)cc2)oc2cc(O)cc(O)c12 [Compound 8, kaempferol]",17.9 ± 0.18
3,"O=C1c2c(O)cc(O)cc2O[C@H](c2ccc(O)cc2)[C@H]1O [Compound 10, dihydrokaempferol]",> 50
